Laboratory results published in patent US9381193B2, “Contraceptive methods and compositions” (WASHINGTON UNIVERSITY, priority 2011, dated 2016).

Tests used:
FVB/NJ mice [1] = test: Serum hormone concentration in DHEA-fed mice (ELISA); format: in vivo, mouse
From the text: (§1) Female FVB/NJ mice were obtained from Jackson Laboratories (Bar Harbor, Me., USA). Regular rodent chow was supplemented with DHEA at 0.01%, 0.1% and 0.6% w/w. Three-week-old mice had access to food and water ad libitum. Mice were fed control or DHEA-supplemented chow for two weeks. The Animal Studies Committee at Washington University School of Medicine reviewed and approved all animal experiments. Animals were maintained according to the Guide for the Care and Use of Laboratory Animals provided by the Institute for Laboratory Animal Research.
Control and DHEA-fed mice were superovulated with 10 IU pregnant mare serum gonadotropin (PMSG) by i.p. injection. DHEA, estradiol and testosterone serum concentrations were measured 48 hours later. For progesterone concentrations, mice were given an i.p. injection of 10 IU hCG 48 hours after PMSG and blood was collected 24 hours later. Mice were anesthetized with 50 μl ketamine and xylazine (1:1) and blood was collected by cardiac puncture. Serum was separated by centrifugation and stored at −20° C. ELISA assays were used to determine serum hormone concentrations (Alpco, Salem, N.H., USA).

FVB/NJ mice [2] = test: Pregnancy rates / litters of DHEA-fed mice; format: in vivo, mouse
Description: (§2) To determine the reversibility of DHEA, mice were fed the two higher DHEA diets that prevented normal estrous cycles for two weeks followed by regular rodent chow for two weeks. Estrous cycles and pregnancy rates were recorded.
as §1
Control and DHEA-fed mice were mated with males of known fertility until three litters were delivered or up to 12 weeks.

blastocysts = test: ATP and citrate levels in blastocysts cultured from two-cell embryos with DHEA; format: cell-based, mouse
Description: (§3) Mice were superovulated and mated with males of known fertility. Forty-five hours after injection with hCG, the oviducts were removed. Two-cell embryos were collected by flushing the oviducts with human tubal fluid media (HTF) with 0.25% BSA. Embryos were cultured in HTF with BSA and either DMSO, 10 μM DHEA or 100 μM DHEA for 72 hours. In vitro cultured blastocysts were transferred to 2.5 days postcoitus (dpc) pseudopregnant ICR females. Resulting embryos and placentas were collected at 14.5 dpc and fixed with Bouin's solution, embedded in paraffin and sectioned.
Denuded oocytes or cultured blastocysts were frozen on a glass slide with liquid nitrogen and dried overnight at −35° C. under vacuum. Individual oocytes or blastocysts were extracted in nanoliter volume under oil. Assays were designed to measure ATP, citrate and G6PDH by linking with NAD/NADH or NADP/NADPH which are enzymatically amplified in a cycling reaction allowing products to be measured by fluorometry.

ICR female mice = test: Intrauterine DHEA or 6-AN pellet and pregnancy outcome; format: in vivo, mouse
Description: ICR female mice had either placebo (n=26), DHEA (1.5 mg/60 days)(n=20), or 6-AN pellets (150, 15, 1.5 mcg/60 days)(n=24) placed into the uterine horn after index delivery. Females were then mated and litter size was measured over the following 120 days post pellet. Mice were housed according to the Institutional Animal Care and use Committee and NIH guidelines. Day to first litter, number of litters, number of pups, average pups/litter were recorded. Serum DHEA levels were quantified (Alpco, Salem, N.H.). All pellets (placebo, DHEA, 6-AN) were custom-formulated (Innovative Research, Inc).

FVB/NJ mice [3] = test: Estrous cycles by vaginal smears in DHEA-fed mice; format: in vivo, mouse
Description: as §2, §1
Vaginal smears were performed daily starting at eight weeks of age, after puberty, and establishment of regular estrous cycles. Vaginal cells were collected in 10 μl of phosphate buffered saline (PBS) and evaluated for stage of estrous by one investigator by light microscopy.

embryos = test: Transfer of blastocysts cultured in DHEA to pseudopregnant females; format: in vivo, mouse
Description: as §3

ESC-T cells = test: In vitro decidualization of immortalized human ESC-T cells (decidualization marker mRNA, morphology); format: cell-based; parameters: Lowering of PRL and IGFBP1 mRNA expression vs differentiation media only / Morphological change during decidualization: dose or concentration left out as unconfirmed
From the text: Decidualization in human cells was monitored by measuring the mRNA expression of two decidualization markers, PRL and IGFBP1.
This NADP+ analog inhibits two enzymes in the PPP, G6PD and 6GPDH, which utilize NADP+ and convert it into NADPH.
Two major results of the PPP are the production of ribose 5-phosphate and regeneration of NADPH. Production of ribose 5-phosphate is a central component in the de novo synthesis of ribonucleosides (RNs) and deoxyribonucleosides (DRNs). […] To address this question, ESC-T cultures were used and the differentiation media was supplemented with RNs and DRNs during treatment with PPP inhibitors.
Endometrial tissue was obtained from human uteri after hysterectomy conducted for benign disease or from endometrial biopsies. Informed consent was obtained from each patient before surgery and protocols were approved by the Human Research Protection Office of Washington University (HRPO#07-0949). Tissues were placed in HBSS and transported to the laboratory. hESCs were isolated and cultured as previously described. In vitro decidualization was performed as previously described with several changes. Cells were seeded in 6-well plates at 2×10^5 cells/well in DMEM:F12 without phenol red, supplemented with 2% heat-inactivated charcoal dextran-stripped calf serum (HyClone) and 50 μg/ml penicillin/streptomycin (Cambrex Bio Science). Cells were treated with 1 μM medroxyprogesterone-17-acetate (MPA) (Sigma) and 0.5 mM N^6, 2′-O-Dibutyryladenosine 3′,5′-cyclic monophosphate sodium salt (db-cAMP) (Sigma). Control samples received 0.1% ethanol vehicle control.
Human immortalized ESC (ESC telomerase immortalized, ESC-T), were decidualized in vitro in the presence of 0, 2.5 or 5 mM GlcN for 9 days.

human primary ESCs = test: In vitro decidualization of human primary ESCs (decidualization marker mRNA); format: cell-based; details: 9 days in decidualization media
From the text: In order to confirm that this is not a side effect of ESC immortalization with telomerase overexpression in this human cell line, the effect of DHEA on decidualization of primary ESC cultures from mouse and human uteri was also investigated. Murine ESCs were isolated from the gravid uterus at 4 days post coitus and cultured in vitro for 3 days to induce decidualization as described in the Methods. […] The human primary ESCs were isolated from uteri following hysterectomy for benign disease as outlined in the Methods and cultured in decidualization media for 9 days.
Control samples received 0.1% ethanol vehicle control.

oocytes from rats = details: DHEA 1 mg/100 g or 10 mg/100 g body weight, increased with dose and treatment duration; cited from earlier work

SMILES: C[C@]12CC[C@H](O)CC1=CC[C@@H]1[C@@H]2CC[C@]2(C)C(=O)CC[C@@H]12 [DHEA, dehydroepiandrosterone]
- Increase in DHEA serum levels (FVB/NJ mice [1]; 0.01% DHEA supplementation): 1.9 fold
- Serum DHEA (FVB/NJ mice [1]; DHEA diets 0.01%, 0.1%, 0.6%, 48 hours after PMSG): elevated in the DHEA-fed mice in a dose-dependent fashion
- Litters while on diet (FVB/NJ mice [2]; 0.01% DHEA diet): the litters were smaller than the controls
- Litters while on diet (FVB/NJ mice [2]; 0.1% and 0.6% DHEA diet): did not deliver any pups
- Citrate levels of control (blastocysts; 10 μM DHEA): 86%
- Citrate levels of control (blastocysts; 100 μM DHEA): 68%
- Mean serum levels of DHEA (ICR female mice; DHEA pellet group, controls 0.265): 0.512 ng/mL
- Average pups/litter (ICR female mice; DHEA pellet, after 60 days, control 12.3): 10.3 pups/litter
- Reduction of average pups/litter size (ICR female mice; DHEA pellet, first litter after placement of the pellet): 55%
- Average pups/litter (ICR female mice; DHEA pellet, first litter, control 13.0): 5.9 pups/litter
- Average time to first litter (ICR female mice; intrauterine pellet: DHEA 1.5 mg/60 days, 6-AN 150, 15, 1.5 mcg/60 days, controls 27 days): 34 days
- Estrous cycle length (FVB/NJ mice [3]; 0.01% DHEA diet, after two weeks): approximately five days longer than controls
- Estrous cycle stage (FVB/NJ mice [3]; 0.1% DHEA and 0.6% DHEA diet): remained in metestrus or diestrus for the entire evaluation period
- Anomalies in the fetuses or abnormal placental histology (embryos): did not lead to increased anomalies
- Fetus size at 14.5 dpc (embryos): significantly smaller fetuses
- Placenta size at 14.5 dpc (embryos; p=0.054): smaller placentas
- PRL and IGFBP1 decidualization markers (ESC-T cells; 100 μM DHEA, day 4): drastic decrease
- Morphological change during decidualization (ESC-T cells; DHEA): the morphological progression is halted
- Lowering of PRL and IGFBP1 mRNA expression vs differentiation media only (ESC-T cells; DHEA, day 3 of in vitro culture): 5 fold
- Expression of PRL and IGFBP1 (human primary ESCs): decreased in a concentration dependent manner
- Percentage of degenerated oocytes (oocytes from rats): ≤ 70%
